Literature values in patent publication US7579360B2, “Triazolopyridine 11-beta hydroxysteroid dehydrogenase type I inhibitors” (Bristol-Myers Squibb Company, priority 2005, dated 2009).

Molecular target: T1, 11beta-HSD1 (Homo sapiens, UniProt P28845)
T1 construct: host or cells: patients with type 2 diabetes (liver, in vivo)
Conditions: mildly overweight individuals with type 2 diabetes, seven days, versus placebo

T1 sequence (P28845 whole entry): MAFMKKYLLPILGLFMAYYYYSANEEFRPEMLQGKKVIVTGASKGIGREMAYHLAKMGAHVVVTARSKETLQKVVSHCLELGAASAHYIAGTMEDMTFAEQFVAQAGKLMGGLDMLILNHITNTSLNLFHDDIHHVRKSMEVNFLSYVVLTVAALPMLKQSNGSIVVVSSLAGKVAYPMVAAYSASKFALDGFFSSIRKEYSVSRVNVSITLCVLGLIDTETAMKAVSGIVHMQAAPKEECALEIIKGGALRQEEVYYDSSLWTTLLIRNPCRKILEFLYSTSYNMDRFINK

**Q.** Which hepatic glucose production does the source give for `CC1(C)[C@@H](OC(=O)CCC(=O)O)CC[C@]2(C)[C@H]3C(=O)C=C4[C@@H]5C[C@@](C)(C(=O)O)CC[C@]5(C)CC[C@@]4(C)[C@]3(C)CC[C@@H]12` [carbenoxolone] here?
**A.** Its hepatic glucose production is “decrease”.
